Measurements reported in patent US11684616B2, “Azalactam compounds as HPK1 inhibitors” (PFIZER INC., priority 2020, dated 2023).

Molecular target: human full-length autophosphorylated recombinant HPK1 (Homo sapiens (Human), UniProt Q92918)
Experiment: HPK1 biochemical enzyme assay (chelation-enhanced fluorescence, CHEF)
Settings: 0.5 nM HPK1, 45 μM ATP, Morrison fit
Protocol: HPK1 Biochemical Enzyme Assay
HPK1 enzyme inhibition was measured by using the fluorescence-based chelation-enhanced fluorescence (CHEF) method (1), and by using a proprietary fluorescent peptide substrate, in which a cysteine residue is alkylated with a sulfonamido-oxine-based derivative to afford an amino acid termed C-Sox (CSx). […] Initial reaction velocities were determined by following the peptide fluorescence (λex=360 nm, λem=500 nm) at 30° C. for 15 min in a Tecan M1000 plate reader (Tecan Group Ltd., Mannedorf, Zurich, Switzerland).
Production of Autophosphorylated Full-Length Recombinant HPK1
The DNA sequence encoding full-length human HPK1 (Genbank NM_001042600.2) was synthesized at GenScript and contained a limited number of silent base changes to eliminate certain restriction endonuclease enzyme recognition sites, and fused to a DNA sequence encoding a Tobacco Etch Virus (TEV)-cleavable N-terminal polyhistidine purification tag. A recombinant baculovirus was prepared by using the Bac-to-Bac method (InVitrogen) and was used to infect 9 L of Sf21 insect cells. All purification steps were carried out at 4° C. Cells containing recombinant HPK1 were lysed in 50 mM HEPES-NaOH, pH 7.5, 250 mM NaCl, 1 mM tris(2-carboxyethyl)phosphine (TCEP), 10 μM leupeptin (Sigma), 10 μM E-64 (Sigma), and one ‘EDTA-free’ protease inhibitor tablet (Roche) per 75 mL buffer, centrifuged at 15,000×g for 1 h and the supernatant passed over 5 mL of ProBond IMAC resin (InVitrogen). After washing, HPK1 was eluted with 12.5 mL of 50 mM HEPES-NaOH, pH 7.5, 400 mM NaCl, 250 mM imidazole-HCl pH 7.5, 1 mM TCEP, 2 μM leupeptin, and 2 μM E-64. The eluted HPK1 was dialyzed overnight against 0.8 L of 50 mM HEPES-NaOH, pH 7.5, 400 mM NaCl, 20 mM imidazole-HCl pH 7.5, 1 mM TCEP, 2 μM leupeptin, 2 μM E-64, 2 mM ATP-NaOH pH 7.3, 5 mM MgCl2 and 1 mg TEV (this step simultaneously allows for reduction of the imidazole concentration in preparation for the subsequent reverse IMAC chromatography step, removal of the polyhistidine purification tag by TEV protease, and autophosphorylation of HPK1 in the presence of MgATP). The de-tagged and autophosphorylated HPK1 was adjusted to 40 mM imidazole-HCl, pH 7.5, and passed through a 10 mL column of ProBond resin similarly equilibrated. […] The peak fractions containing HPK1 were pooled and concentrated to approximately 2.5 mL by using a centrifugal concentrator (Millipore). The concentrated HPK1 was adjusted to 20% (v/v) glycerol by the addition of 50% (v/v) glycerol, resulting in a final formulation of 25 mM HEPES-NaOH pH 7.5, 250 mM NaCl, 0.25 mM TCEP and 20% (v/v) glycerol. […] Aliquots of the enzyme were flash frozen in liquid nitrogen and stored at −80° C. The final product contains a glycine-serine extension at the N-terminus of the full-length protein, as a result of the cloning strategy.

Sequence of human full-length autophosphorylated recombinant HPK1 (Q92918 other isoform, or with tags, fused parts or gaps): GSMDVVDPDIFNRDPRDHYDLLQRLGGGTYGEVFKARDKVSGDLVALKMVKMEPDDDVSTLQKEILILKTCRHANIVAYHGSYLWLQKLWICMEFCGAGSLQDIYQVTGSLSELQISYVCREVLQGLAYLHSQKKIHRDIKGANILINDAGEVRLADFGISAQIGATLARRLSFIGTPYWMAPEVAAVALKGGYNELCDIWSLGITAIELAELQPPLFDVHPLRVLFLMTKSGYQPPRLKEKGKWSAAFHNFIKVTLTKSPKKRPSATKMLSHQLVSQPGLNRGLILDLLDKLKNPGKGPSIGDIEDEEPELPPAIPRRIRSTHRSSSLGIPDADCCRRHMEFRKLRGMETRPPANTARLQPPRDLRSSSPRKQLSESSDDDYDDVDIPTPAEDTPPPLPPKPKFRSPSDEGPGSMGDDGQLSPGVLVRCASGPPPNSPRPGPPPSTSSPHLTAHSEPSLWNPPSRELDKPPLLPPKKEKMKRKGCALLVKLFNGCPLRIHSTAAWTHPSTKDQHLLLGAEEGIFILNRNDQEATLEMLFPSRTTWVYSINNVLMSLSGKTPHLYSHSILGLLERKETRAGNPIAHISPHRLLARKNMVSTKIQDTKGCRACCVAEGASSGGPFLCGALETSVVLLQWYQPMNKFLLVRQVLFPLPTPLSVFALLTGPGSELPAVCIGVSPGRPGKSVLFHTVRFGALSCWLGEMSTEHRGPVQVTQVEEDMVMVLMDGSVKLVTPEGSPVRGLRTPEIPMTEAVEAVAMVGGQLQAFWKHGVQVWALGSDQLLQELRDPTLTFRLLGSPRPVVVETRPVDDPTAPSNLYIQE

Row | Compound | Ki [nM]
1 | CC[C@@H]1CCc2nnc(-c3cccc(N4Cc5c(cc(N(C)C(C)C)nc5[C@@H](C)N)C4=O)n3)n21 [Example 12, 4-[(1R)-1-aminoethyl]-2-{6-[(5R)-5-ethyl-6,7-dihydro-5H-pyrrolo[2,1-c][1,2,4]triazol-3-yl]pyridin-2-yl}-6-[methyl(propan-2-yl)amino]-2,3-dihydro-1H-pyrrolo[3,4-c]pyridin-1-one] | 1.98
2 | C[C@H](N)c1nc(C2(C)CC2)cc2c1CN(c1cccc(-c3nncn3C3CCC3)n1)C2=O (stereo in doubt) [Example 104, 4-[(1ξ)-1-aminoethyl]-2-[6-(4-cyclobutyl-4H-1,2,4-triazol-3-yl)pyridin-2-yl]-6-(1-methylcyclo-propyl)-2,3-dihydro-1H-pyrrolo[3,4-c]pyridin-1-one] | 2.36
3 | CC[C@@H]1CCc2nnc(-c3cccc(N4Cc5c(cc(N6CCC[C@H]6C)nc5[C@@H](C)N)C4=O)n3)n21 [Example 7, 4-[(1R)-1-aminoethyl]-2-{6-[(5R)-5-ethyl-6,7-dihydro-5H-pyrrolo[2,1-c][1,2,4]triazol-3-yl]pyridin-2-yl}-6-[(2R)-2-methylpyrroli-din-1-yl]-2,3-dihydro-1H-pyrrolo[3,4-c]pyridin-1-one] | 2.8
4 | CNCc1nc(N(C)C)cc2c1CN(c1cccc(-c3nnc4n3[C@H](C)CC4)n1)C2=O [Example 209, 6-(dimethyl-amino)-4-[(methylamino)methyl]-2-{6-[(5R)-5-methyl-6,7-dihydro-5H-pyrrolo[2,1-c] [1,2,4]triazol-3-yl]pyridin-2-yl}-2,3-dihydro-1H-pyrrolo[3,4-c] pyridin-1-one] | 2.11
5 | CCCn1cnnc1-c1cccc(N2Cc3c(cc(N(C)C)nc3[C@@H](N)CC)C2=O)n1 [Example 143, 4-[(1ξ)-1-aminopropyl]-6-(dimethyl-amino)-2-[6-(4-propyl-4I-1,2,4-triazol-3-yl)pyridin-2-yl]-2,3-dihydro-1I-pyrrolo[3,4-c]pyridin-1-one] | 3.73

Now those with a lower Ki, led by results:

Row | Ki [nM] | Compound
6 | 1.54 | CCCn1cnnc1-c1cccc(N2Cc3c(cc(N(C)C)nc3[C@H](N)CC)C2=O)n1 (stereo in doubt) [Example 142, 4-[(1ξ)-1-aminopropyl]-6-(dimethyl-amino)-2-[6-(4-propyl-4H-1,2,4-triazol-3-yl)pyridin-2-yl]-2,3-dihydro-1H-pyrrolo[3,4-c]pyridin-1-one]
7 | 1.25 | CCn1cnnc1-c1cccc(N2Cc3c(cc(N(C)C)nc3[C@@H](C)N)C2=O)n1 (stereo in doubt) [Example 153, 4-[(1ξ)-1-aminoethyl]-6-(dimethyl-amino)-2-[6-(4-ethyl-4H-1,2,4-triazol-3-yl)pyridin-2-yl]-2,3-dihydro-1H-pyrrolo[3,4-c]pyridin-1-one]
8 | 1 | CC[C@H](N)c1nc(N(C)C)cc2c1CN(c1cccc(-c3nncn3CC)n1)C2=O (stereo in doubt) [Example 147, 4-[(1ξ)-1-aminopropyl]-6-(dimethyl-amino)-2-[6-(4-ethyl-4H-1,2,4-triazol-3-yl)pyridin-2-yl]-2,3-dihydro-1H-pyrrolo[3,4-c]pyridin-1-one]
9 | 0.46 | CCCn1cnnc1-c1cccc(N2Cc3c(cc(N4CCC[C@H]4C)nc3[C@@H](N)CC)C2=O)n1 [Example 145, 4-[(1S)-1-aminopropyl]-6-[(2R)-2-methylpyrroli-din-1-yl]-2-[6-(4-propyl-4H-1,2,4-triazol-3-yl)pyridin-2-yl]-2,3-dihydro-1H-pyrrolo[3,4-c]pyridin-1-one]
10 | 0.15 | C[C@H](N)c1nc(N2CCC[C@H]2C)cc2c1CN(c1cccc(-c3nnc4n3[C@@H](CF)CC4)n1)C2=O [Example 19, 4-[(1ξ)-1-aminoethyl]-2-{6-[(5R)-5-(fluoromethyl)-6,7-dihydro-5H-pyrrolo[2,1-c][1,2,4]triazol-3-yl]pyridin-2-yl}-6-[(2R)-2-methylpyrroli-din-1-yl]-2,3-dihydro-1H-pyrrolo[3,4-c]pyridin-1-one]
